Source: patent US6875438B2, “Preparations for topical administration of substances having antiandrogenic activity” (Aventis Pharma Deutschland GmbH, priority 2002, dated 2005)

How the values were obtained:
[1] = Microscopic investigations for crystallization of active ingredient in the preparation; type: physicochemical; settings: lipid nanoparticle preparations
[2] = test system: cells of the dermal papilla of occipital scalp; assay: Hydrolysis of compound 2 to compound 1 in cultivated dermal papilla cells (HPLC of media extracts); type: in vitro ADME, human; settings: skin cells, in particular cells of the dermal papilla
Protocol: Monolayer cultures of juvenile prepuce keratinocytes and fibroblasts and of cells of the dermal papilla of occipital scalp were incubated with compound 2 in a concentration of 10^−5 M under standard conditions (5% CO2, 37° C.) for 24 h. The cell culture medium was then extracted with chloroform. The organic phase was evaporated and the residue was taken up in acetonitrile and investigated by HPLC analysis for its content of compounds 1 and 2.

CCCCCCCCCCCCCC(=O)OCCCCN1C(=O)N(c2ccc(C#N)c(C(F)(F)F)c2)C(=O)C1(C)C [compound 2]
Crystallization of compound 2 in the preparation (microscopy) [1]: no indications of crystallization
Conversion of compound 2 into compound 1 (in words) [2]: significant conversion
